Reference: patent US20230032283A1, “Topical Compositions For Treating Skin Ailments” (priority 2021, published 2023)

System: skin conditions (boil, folliculitis, ingrown hair)
Test: Empirical studies of active ingredients in topical compositions
Format: in vivo, human

Compound | relieving pain of papule-like boil or ingrown hair conditions (1% by weight in composition) | treating contemplated skin conditions (antibiotic ingredients blended into compositions)
CCCCOc1ccc(OCCCN2CCOCC2)cc1 [Pramoxine] | effective | –
bacitracin zinc | – | effective
